The results in this text go back to PubChem BioAssay (NCI).

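Five concentrations, 48 hours, 96-well plates. TGI: total growth inhibition.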

Test in all cases: NCI tumour cell line growth inhibition, 48 h
For experiment [1], the system named is DLD-1 colon.
The test system of experiment [2] is DMS 273 small cell lung.
For experiment [3], the system named is HOP-18 NSCLC.
The test system of experiment [4] is KM20L2 colon.
The subject of experiment [5] is M19-MEL melanoma.
The test system of experiment [6] is P388 leukemia.
Experiment [7] concerns P388/ADR leukemia.
Experiment [8] has as its system SN12K1 renal.
The test system of experiment [9] is LXFL 529 NSCLC.

Regarding `CC(O)C(O)C(N)CC=O` (centres undefined), the TGI in [1], in experiment [2], in experiment [3], in [4], in experiment [5] and in experiment [6] was more than 500 µM each time. In addition, the TGI in [7] and in [8] was more than 500 µM each time.

With `COC(=O)C1=CC[C@@H]2C(C(=O)O)=CO[C@@H](OC3OC(CO)C(O)C(O)C3O)[C@H]12` (some centres undefined), the TGI was more than 189 µM in experiment [1]; more than 300 µM in experiment [2]; more than 300 µM in [3]; more than 300 µM in experiment [4]; more than 300 µM in experiment [5]; more than 300 µM in experiment [6]. Also, the TGI is more than 139 µM in experiment [7] and more than 300 µM in experiment [8].

As for `O=S(O)c1cc(Cl)cc(Cl)c1O`, the TGI in experiment [1], in [9] and in [5] was more than 100 µM each time.
